Patent US20260152799A1, “TUMOUR STRATIFICATION FOR RESPONSIVENESS TO AN IMMUNE CHECKPOINT INHIBITOR” (MEMORIAL SLOAN-KETTERING CANCER CENTER, priority 2022, published 2026)

Tests used:
PD-L1 [1] = biological target: T1, PD-L1 (Homo sapiens, UniProt Q9NZQ7); settings: in vitro; cited from earlier work
PD-L1 [2] = biological target: T1, PD-L1; settings: xenograft model, T-cell dependent mechanism; cited from earlier work
metastatic melanoma [3] = assay: Riaz et al clinical cohort: response to nivolumab by tumour mtDNA mutation status; format: in vivo, humans
Method: A—Stratification of a metastatic melanoma patient cohort by mtDNA status. […] P-values were determined using one-way ANOVA test with Sidak multiple comparisons test (C,F), one-tailed student's t-test (I) or chi-squared test (H) were applied. Error bars indicate SD. Measure of centrality is mean.
The inventors then assessed whether this would be associated with clinical outcome.
Aligned reads for ChrM for patients' tumour and normal samples were acquired and processed according to previously described pipelines which are now publicly available (see e.g. Gorelick et al., Nature Metabolism 2021). Mutation calls and calculated heteroplasmy were used to assign patients to mtDNA wildtype, <50% VAF or >50% VAF groups.

metastatic melanoma [4] = settings: of the 15 responders; cited from earlier work

T1 sequence (Q9NZQ7 19-290): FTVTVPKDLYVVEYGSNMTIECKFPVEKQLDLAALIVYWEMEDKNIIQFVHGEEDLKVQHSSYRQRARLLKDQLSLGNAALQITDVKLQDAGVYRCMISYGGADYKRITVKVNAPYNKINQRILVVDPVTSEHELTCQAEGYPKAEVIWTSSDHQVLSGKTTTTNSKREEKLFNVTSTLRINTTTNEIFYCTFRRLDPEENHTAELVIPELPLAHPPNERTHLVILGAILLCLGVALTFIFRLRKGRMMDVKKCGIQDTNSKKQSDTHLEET

Row | Substance | Effect on PD-L1-mediated suppression of human T-cell activation (PD-L1 [1]) | Effect on tumour growth (PD-L1 [2]) | Tumours responding to nivolumab (metastatic melanoma [3]; <50% VAF tumours) [%] | Tumours responding to nivolumab (metastatic melanoma [3]; >50% VAF tumours) [%] | Complete responders categorised as >50% VAF (metastatic melanoma [3]; out of the 3 complete responders) | Complete responses (metastatic melanoma [4]) | Partial responses (metastatic melanoma [4])
1 | MEDI4736: anti-PD-L1 antibody selective for PD-L1 that blocks binding of PD-L1 to PD-1 and CD80 | relieve PD-L1-mediated suppression of human T-cell activation | inhibit tumour growth | – | – | – | – | –
2 | nivolumab | – | – | 17 | 40 | 2 | 3 | 12
